From patent US11116817B2, “Antimicrobial agents and compositions comprising the same” (THE CURATORS OF THE UNIVERSITY OF MISSOURI, priority 2017, dated 2021)
Like-named read-outs stand apart in the source and are kept apart here. Positions of bridges follow the written chain, without caps; N, C: chain ends. No end group written: not given here.

How the values were obtained:
[1] = tested on: methicillin-resistant S. pseudintermedius (MRSP); assay type: cell-based
Experimental: (§1) The minimum inhibitory concentrations (MICs) of CAMPs (SEQ ID NOs: 1, 2, 3, and 4) were determined according to the guidelines of the Clinical and Laboratory Standards Institute (CLSI). The Muller Hinton (MH) II broth used in MIC assay was supplemented with 20-25 mg/L of calcium and 10-12.5 mg/L of magnesium. In brief, peptides were two-fold serially diluted (2 to 256 μg/ml) in a 96-well microtiter plate (Nunc™, Thermo Fisher Scientific) and an equal volume (μl) of bacterial suspension was added to each well of the plate. The final bacterial concentration in the wells was 5×10^5 CFU/ml. […] All assays were conducted in triplicate.

[2] = tested on: S. aureus (ATCC 29213); assay type: cell-based
Experimental: as §1

[3] = tested on: P. aeruginosa; assay type: cell-based
Experimental: as §1

[4] = tested on: P. aeruginosa (ATCC 27853); assay type: cell-based
Experimental: (§2) The minimum inhibitory concentrations (MIC) of AvBDs (SEQ ID NOs: 5, 6, 7, 8, 9, 10, 11, 12, and 13) were determined under low salt and standard conditions according to the guidelines of the Clinical and Laboratory Standards Institute (CLSI). […] An equal volume […] of bacterial suspension was added to each well of the plate. The final bacterial concentration in the wells was 5×10^5 CFU/ml. […] To complement MIC-1s assays, the minimum bactericidal concentrations (MBC) were evaluated by sub-culturing the contents of the first two clear wells obtained in the MIC-1s assay onto LB agar plates. All assays were conducted in triplicate. The lowest peptide concentration inhibiting about, at least, or more than 99% of bacterial growth was defined as MBC-1s. The analogues were regarded as bactericidal when the MBC was determined to be no more than four times the MIC.

[5] = tested on: Gram-positive bacteria (S. aureus and MRSP strains); assay: MIC assay, Example One, pooled over Gram-positive strains; assay type: cell-based, S. pseudintermedius; settings: mean over the Gram-positive strains of Table 2
Experimental: as §1
The Hemolytic Assay includes the following procedures. […] The supernatant was transferred to a 96-well flat-bottomed polystyrene plate (Thermo Fisher Scientific), and the amount of hemoglobin released into the supernatant was determined by measuring the absorbance with a spectrophotometer at 540 nm. Hemolytic activity was expressed as the percentage of hemolysis and calculated using the following equation: hemolysis (%)=(As−A0)/(A100−A0)×100, where As is the absorbance of the sample, A100 is the absorbance of completely lysed RBCs in 0.2% Triton X-100, and A0 is the absorbance in the complete absence of hemolysis (PBS treatment). […] Therapeutic index (T.I.) was calculated according to a previously published formula: T.I.=MHC/MICGM. […]

[6] = tested on: S. Typhimurium (ATCC 14028); assay type: cell-based
Experimental: as §2

[7] = tested on: E. coli (ATCC 25922); assay type: cell-based
Experimental: as §2

[8] = tested on: S. aureus (ATCC 29213); assay type: cell-based; remark: listed apart in the source
Experimental: as §2

[9] = tested on: CHO-K1 cells; assay: Cell cytotoxicity assay (MTT); assay type: cell-based, hamster; settings: 4, 16, 64, 256 μg/ml for 4, 12, 24, and 48 hour
Experimental: (§3) The Cell Cytotoxicity Assay includes the following procedures. Mouse immature dendritic cell line, JAWSII (ATCC CRL-11904™), was cultured in Alpha minimum essential medium with ribonucleosides, deoxyribonucleosides, 4 mM L-glutamine, 1 mM sodium pyruvate, and 5 ng/ml murine Granulocyte macrophage colony-stimulating factor (GM-CSF) then supplemented with 20% FBS, 100 U/ml penicillin, and 100 μg/ml streptomycin at 37° C. in humidified air with 5% CO2. CCR-2 transfected CHO-K1 cells were cultured in RPMI-1640 supplemented with 10% FBS, 2 mM L-glutamine, 100 units/ml penicillin and streptomycin, and 500 μg/ml G418 at 37° C. in humidified air with 5% CO2. The cytotoxicity of CAMPs (SEQ ID NOs: 1, 2, 3, and 4) to JASWII and CHO-K1 cells was determined using MTT (3-(4,5-dimethylthiazol-2-yl)-2,5-diphenyltetrazolium bromide, Thermo Fisher Scientific) cell proliferation assay. Cells (5×10^3 cells/well) in 96-well microtiter plates were treated with peptides at 64, 128, 256, and 512 μg/ml for 4, 12, 24, and 48 hours at 37° C. After treatment, 20 μl of 12 mM MTT solution was added to each well and the plate was incubated for 4 hours. The medium in each well was replaced with 100 μl of dimethyl sulfoxide (DMSO, Sigma-Aldrich) to dissolve MTT crystals. The plates were read using a spectrophotometer at 540 nm. The viability of treated cells was expressed as the percentage of viability relative to the untreated control. The experiment was performed in triplicate.
(§4) Chicken macrophage cell lines MQ-NCSU and HD11 were maintained in RPMI-1640 media supplemented with 10% fetal bovine serum (FBS), 2% chicken serum, 100 U/ml penicillin and 100 μg/ml streptomycin (Sigma-Aldrich) at 37° C. in humidified air with 5% CO2. CHO-K1 cells were cultured in the same media without 2% chicken serum. For CCR2-transfected CHO-K1 cells, medium was supplemented with 500 μg/ml G418 was added (Sigma-Aldrich). Murine immature dendritic cell line JAWSII (ATCC CRL-11904™) was cultured in Alpha minimum essential medium containing 4 mM L-glutamine, 1 mM sodium pyruvate, 5 ng/ml murine Granulocyte macrophage colony-stimulating factor (GM-CSF), 20% FBS, 100 U/ml penicillin and 100 μg/ml streptomycin at 37° C. in humidified air with 5% CO2. The cell cytotoxicity was determined using the MTT (3-(4,5-dimethylthiazol-2-yl)-2,5-diphenyltetrazolium bromide cell proliferation assay according to the manufacturer's instruction (Thermo Fisher Scientific). Briefly, cells (5×10^3 cells/well) were seeded in 96-well tissue culture plates, incubated overnight and treated with the analogues at concentrations of 4, 16, 64 and 256 μg/ml for 4, 12, 24 and 48 hours at 37° C. After treatment, […] 12 mM MTT solution was added to each well. The plate was incubated for 4 hours and read at 540 nm. Viability was expressed as percentage of viable cells relative to the untreated control. The experiments were performed in triplicate.

[10] = tested on: JAWSII cells; assay: Cell cytotoxicity assay (MTT); assay type: cell-based, mouse; settings: 4, 16, 64, 256 μg/ml for 4, 12, 24, and 48 hour
Experimental: as §3, with “The medium in each well was replaced with 100 μl of dimethyl sulfoxide (DMSO, Sigma-Aldrich) to dissolve MTT crystals.” left out, “The experiment was performed in triplicate.” left out

[11] = tested on: chicken macrophage cell line HD11; assay: Cell cytotoxicity assay (MTT); assay type: cell-based; settings: 4, 16, 64, 256 μg/ml for 4, 12, 24, and 48 hour
Experimental: as §4, with “The experiments were performed in triplicate.” left out

[12] = tested on: chicken macrophage cell line MQ-NCSU; assay: Cell cytotoxicity assay (MTT); assay type: cell-based; settings: 4, 16, 64, 256 μg/ml for 4, 12, 24, and 48 hour
Experimental: as §4, with “The experiments were performed in triplicate.” left out

[13] = standard conditions, CLSI guidelines

Sequence: SPIHACRYQRGVCIPGPCRWPYYRVGSCGSGLKSCCVRNRWA (disulfide 6-35, 13-28, 18-36) [AvBD-6]
- MIC ([1]; S. pseudintermedius (13164006)): >256 µg/mL
- MIC ([1]; S. pseudintermedius (13193006)): >256 µg/mL
- MIC ([1]; S. pseudintermedius (13207007)): >256 µg/mL
- MIC ([1]; S. pseudintermedius (13228005)): >256 µg/mL
- MIC ([1]; S. pseudintermedius (13267017)): >256 µg/mL
- MIC ([1]; S. pseudintermedius (13269013)): >256 µg/mL
- MIC [2]: 256 µg/mL
- MIC ([3]; 24 h): >256 µg/mL
- MICAverage G− ([3]; mean over the Gram-negative (P. aeruginosa) strains of Table 2): >256 µg/mL
- MBS-Is ([4]; low salt condition (5 mM NaCl)): 128 µg/mL
- MICAverage G+ [5]: ≥256 µg/mL

Sequence: GPHSCNHQRGLCRVGNCNPGYYLAKYCFSPVILCCKPLSPTPTKT (disulfide 5-34, 12-27, 17-35) [AvBD-12/6]
- MIC-Is ([4]; low salt condition (5 mM NaCl)): 64 µg/mL
- MIC [4, 13]: >256 µg/mL
- MBC-Is ([6]; low salt condition (5 mM NaCl)): 64 µg/mL
- MIC-Is ([6]; low salt condition (5 mM NaCl)): 16 µg/mL
- MIC [6, 13]: >256 µg/mL
- MBC-Is ([7]; low salt condition (5 mM NaCl)): 32 µg/mL
- MIC-Is ([7]; low salt condition (5 mM NaCl)): 8 µg/mL
- MIC [7, 13]: 256 µg/mL
- MBC-Is ([8]; low salt condition (5 mM NaCl)): 256 µg/mL
- MIC-Is ([8]; low salt condition (5 mM NaCl)): 256 µg/mL
- MIC [8, 13]: 256 µg/mL
- effect on cell viability [9]: did not appear to have any effect on cell viability
- effect on cell viability [10]: did not appear to have any effect on cell viability
- effect on cell viability [11]: did not appear to have any effect on cell viability
- effect on cell viability [12]: did not appear to have any effect on cell viability
